Data taken from patent US8183235B2, “Dihydronaphthalene compound and use thereof” (Tokyo University of Science Educational Foundation …, priority 2007, dated 2012).
Read-outs that look alike come from different tables or passages of the source.

How the values were obtained:
[1] = test system: central nervous system cancer cells; assay: Proliferation inhibition, central nervous system cancer cell panel (summary); assay type: cell-based; conditions: read-out: cytotoxic activity (extent of effective concentration)
Description: (§1) As a comparison for the inhibition activity, tamoxifen citrate (TAM) was used. In the Table, the concentration units are μM.

SF-268 = assay: Inhibition of propagation of central nervous system cancer cells (sulforhodamin B); assay type: cell-based; conditions: Homo sapiens, 48 h; SF-268, two days of cultivation
Description: as §1

U251 = assay: as above; assay type: cell-based; conditions: Homo sapiens, U-251, 48 h; U251, two days of cultivation
Description: as §1

SF-295 = assay: as above; assay type: cell-based; conditions: Homo sapiens, 48 h; SF-295, two days of cultivation
Description: as §1

SNB-75 = assay: as above; assay type: cell-based; conditions: Homo sapiens, 48 h; SNB-75, two days of cultivation
Description: as §1

SNB-78 = assay: as above; assay type: cell-based; conditions: Homo sapiens, 48 h; SNB-78, two days of cultivation
Description: as §1

SF-539 = assay: as above; assay type: cell-based; conditions: Homo sapiens, 48 h; SF-539, two days of cultivation
Description: as §1

OVCAR-3 = assay: Proliferation inhibition of ovarian cancer cells; assay type: cell-based; conditions: Homo sapiens
Method: as §1
(§2) In the same way as in Example 9, the proliferation inhibition activity of naforidaifens A to G was measured with respect to five types of ovarian cancer cells (OVCAR-3, OVCAR-4, OVCAR-5, OVCAR-8, AND SK-OV-3). In the Table, the concentration units are μM.

OVCAR-4 = assay: Proliferation inhibition of ovarian cancer cells; assay type: cell-based; conditions: Homo sapiens
Method: as §1, §2

SK-OV-3 = assay: Proliferation inhibition of ovarian cancer cells; assay type: cell-based; conditions: Homo sapiens
Method: as §1, §2

OVCAR-8 = assay: Proliferation inhibition of ovarian cancer cells; assay type: cell-based; conditions: Homo sapiens
Method: as §1, §2

OVCAR-5 = assay: Proliferation inhibition of ovarian cancer cells; assay type: cell-based; conditions: Homo sapiens
Method: as §1, §2

[2] = molecular target: 20S proteasome chymotrypsin-like activity (Homo sapiens, UniProt P28074); assay: Chymotrypsin-like activity inhibition test; assay type: biochemical; conditions: for remaining activity at 10 µM: read-out: % Control, Chymotrypsin-like Activity
MKN28 = assay: Proliferation inhibition of stomach cancer cells; assay type: cell-based; conditions: Homo sapiens, MKN-28
Method: as §1
(§3) In the same way as in Example 9, the proliferation inhibition activity of naforidaifens A to G was measured with respect to six types of stomach cancer cells (St-4, MKN1, MKN7, MKN28, MKN45, MKN74). In the Table, the concentration units are μM.

St-4 = assay: Proliferation inhibition of stomach cancer cells; assay type: cell-based; conditions: Homo sapiens
Method: as §1, §3

MKN74 = assay: Proliferation inhibition of stomach cancer cells; assay type: cell-based; conditions: Homo sapiens, MKN-74
Method: as §1, §3

MKN7 = assay: Proliferation inhibition of stomach cancer cells; assay type: cell-based; conditions: Homo sapiens, MKN-7
Method: as §1, §3

MKN45 = assay: Proliferation inhibition of stomach cancer cells; assay type: cell-based; conditions: Homo sapiens, MKN-45
Method: as §1, §3

MKN1 = assay: Proliferation inhibition of stomach cancer cells; assay type: cell-based; conditions: Homo sapiens, MKN-1
Method: as §1, §3

20S proteasome = 20S proteasome (Homo sapiens, UniProt P28072+P28074+Q99436); assay: Proteasome inhibition activity, overall judgement; assay type: biochemical; conditions: for The evaluations (proteasome inhibition activity): overall judgement positive/negative; for Proteasome selectivity: judgement
HT-29 = assay: Proliferation inhibition of colon cancer cells; assay type: cell-based; conditions: Homo sapiens
Method: as §1
(§4) In the same way as in Example 9, the proliferation inhibition activity of naforidaifens A to G was measured with respect to five types of colon cancer cells (HCC2998, KM-12, HT-29, HCT-15, and HCT-116). In the Table, the concentration units are μM.

HCC2998 = assay: Proliferation inhibition of colon cancer cells; assay type: cell-based; conditions: Homo sapiens, HCC 2998
Method: as §1, §4

HCT-15 = assay: Proliferation inhibition of colon cancer cells; assay type: cell-based; conditions: Homo sapiens
Method: as §1, §4

KM-12 = assay: Proliferation inhibition of colon cancer cells; assay type: cell-based; conditions: Homo sapiens, KM12
Method: as §1, §4

HCT-116 = assay: Proliferation inhibition of colon cancer cells; assay type: cell-based; conditions: Homo sapiens
Method: as §1, §4

α-chymotrypsin = α-chymotrypsin (Bos taurus, UniProt P00766); assay: α-Chymotrypsin-like activity inhibition test; assay type: biochemical
Method: α-Chymotrypsin-Like Activity Inhibition Test
(§5) 1) To 20S proteasome, naforidaifen B adjusted to a concentration of 10 μM was added, and incubated at 30° C. for 10 min.
2) To the above test system, fluorescence labeled α-chymotrypsin including a 20S proteasome segmenting sequence was added, and reacted for 1 hr at 30° C.
(§6) 3) The fluorescent substance (AMC) released by the above reaction was excited with 360 nm light and assayed with 460 nm light.
(§7) 4) A test system to which naforidaifen B was not added was measured in the same way as (1) to (3) above, and the enzyme activity for the case of using naforidaifen B was measured.
(§8) 5) Stepwise diluted solutions containing naforidaifen B were prepared, and after carrying out the same evaluations as in (1) to (4), the 50% inhibition concentration (IC50) was determined.
6) As a positive control of the enzyme activity, the well-known proteasome inhibitor Clasto-Lactacystin β-Lactone (Lactacystin activator) and MGI32 were evaluated with the steps (1) to (5).

[3] = molecular target: 20S proteasome caspase-like activity (Homo sapiens, UniProt P28072); assay: Caspase-like activity inhibition test; assay type: biochemical; conditions: for remaining activity at 10 µM: read-out: % Control, Caspase-like Activity
[4] = molecular target: 20S proteasome trypsin-like activity (Homo sapiens, UniProt Q99436); assay: Trypsin-like activity inhibition test; assay type: biochemical; conditions: for remaining activity at 10 µM: read-out: % Control, Trypsin-like Activity
Cathepsin B = assay: Cathepsin-like activity inhibition test; assay type: biochemical
Method: Cathepsin-Like Activity Inhibition Test
as §5
2) To the above test system, fluorescence labeled cathepsin including a 20S proteasome segmenting sequence was added, and reacted for 1 hr at 30° C.
as §6, §7, §8
6) As a positive control of the enzyme activity, the known proteasome inhibitor Clasto-Lactacystin β-Lactone (Lactacystin activator) and MGI32 were evaluated with the steps (1) to (5).

stomach cancer cells = assay: Proliferation inhibition, stomach cancer cell panel (summary); assay type: cell-based; conditions: all of the six types of stomach cancer cell lines; read-out: effective concentration
Method: as §1, §3

ovarian cancer cells = assay: Proliferation inhibition, ovarian cancer cell panel (summary); assay type: cell-based; conditions: all of the five types of ovarian cancer cell lines; read-out: effective concentration
Method: as §1, §2

colon cancer cells = assay: Proliferation inhibition, colon cancer cell panel (summary); assay type: cell-based; conditions: all of the five types of colon cancer cell lines; read-out: effective concentration
Method: as §1, §4

[5] = in general with respect to various central nervous system cancer cells

SMILES	GI50 (SF-268) [nM]	GI50 (U251) [nM]	GI50 (SF-295) [nM]	GI50 (SNB-75) [nM]	GI50 (SNB-78) [nM]	GI50 (SF-539) [nM]	GI50 (OVCAR-3) [nM]	GI50 (OVCAR-4) [nM]	GI50 (SK-OV-3) [nM]	GI50 (OVCAR-8) [nM]	GI50 (OVCAR-5) [nM]	IC50 [2] [µM]	GI50 (MKN28) [nM]	GI50 (St-4) [nM]	GI50 (MKN74) [nM]	GI50 (MKN7) [nM]	GI50 (MKN45) [nM]	GI50 (MKN1) [nM]	The evaluations (proteasome inhibition activity) (20S proteasome)	GI50 (HT-29) [nM]	further results
CN(C)CCOc1ccc(C2=C(c3ccccc3)CCc3cc(OCCN(C)C)ccc32)cc1 [Naforidaifen A, 4-[4-(2-dimethylamino-1-yl-ethoxy)phenyl]-7-(2-dimethylamino-1-yl-ethoxy)-3-phenyl-1,2-dihydronaphthalene]	1950	1450	1740	1480	1820	1550	1620	2140	2290	2880	1550	> 10	1820	1480	1410	1580	1740	1480	negative	759	IC50 [1]: 1400 to 1900 nM; remaining activity at 10 µM [2]: 99.5%; GI50 (HCC2998): 1480 nM; GI50 (HCT-15): 1660 nM; GI50 (KM-12): 1860 nM; GI50 (HCT-116): 1100 nM
c1ccc(C2=C(c3ccc(OCCN4CCCCC4)cc3)c3ccc(OCCN4CCCCC4)cc3CC2)cc1 [Naforidaifen C, 4-[4-(2-piperidine-1-yl-ethoxy)phenyl]-7-(2-piperidine-1-yl-ethoxy)-3-phenyl-1,2-dihydronaphthalene]	1740	1480	1740	1510	1820	1480	1660	2090	2040	2400	1260	3.2	2510	1580	1200	1550	2140	1660	positive	550	IC50 [1, 5]: 1400 to 1900 nM; α-chymotrypsin inhibition (α-chymotrypsin): none; remaining activity at 10 µM [2]: 25.9%; IC50 [3]: 5.1 µM; remaining activity at 10 µM [3]: 31.3%; Proteasome selectivity (20S proteasome): present; GI50 (HCC2998): 1350 nM; GI50 (HCT-15): 1380 nM; GI50 (KM-12): 1820 nM; GI50 (HCT-116): 1170 nM; IC50 [4]: > 10 µM; remaining activity at 10 µM [4]: 196%; Cathepsin B inhibition (Cathepsin B): none
c1ccc(C2=C(c3ccc(OCCN4CCCCCC4)cc3)c3ccc(OCCN4CCCCCC4)cc3CC2)cc1 [Naforidaifen F, 4-[4-(2-hexahydro-1H-azepin-1-yl-ethoxy)phenyl]-7-(2-hexahydro-1H-azepin-1-yl-ethoxy)-3-phenyl-1,2-dihydronaphthalene]	1700	1480	1780	1740	1700	1660	1410	1780	1910	2000	1320	4.3	1820	1580	1170	1230	1580	1550	positive	501	α-chymotrypsin inhibition (α-chymotrypsin): none; IC50 (stomach cancer cells): 1100 to 1800 nM; remaining activity at 10 µM [2]: 34.2%; IC50 [3]: 5.1 µM; remaining activity at 10 µM [3]: 39.1%; Proteasome selectivity (20S proteasome): present; IC50 (ovarian cancer cells): 1200 to 1900 nM; GI50 (HCC2998): 1070 nM; GI50 (HCT-15): 1230 nM; GI50 (KM-12): 1590 nM; GI50 (HCT-116): 1230 nM; IC50 (colon cancer cells): 500 to 1500 nM; IC50 [4]: > 10 µM; remaining activity at 10 µM [4]: 251%; Cathepsin B inhibition (Cathepsin B): none
CN(C)CCCOc1ccc(C2=C(c3ccccc3)CCc3cc(OCCCN(C)C)ccc32)cc1 [Naforidaifen G, 4-[4-(3-dimethylamino-1-yl-propoxy)phenyl]-7-(3-dimethylamino-1-yl-propoxy)-3-phenyl-1,2-dihydronaphthalene]	1580	1480	1780	1620	1780	1480	1510	1780	1740	1860	1290	> 10	1620	1480	1150	1320	1480	1510	negative	490	IC50 [1, 5]: 1400 to 1900 nM; IC50 (stomach cancer cells): 1100 to 1800 nM; remaining activity at 10 µM ([2]; Concentration 10 μM): 105%; IC50 (ovarian cancer cells): 1200 to 1900 nM; GI50 (HCC2998): 1290 nM; GI50 (HCT-15): 1290 nM; GI50 (KM-12): 1660 nM; GI50 (HCT-116): 1100 nM
